Consider one compound from patent US9962369B2, “Methods and compositions for transdermal delivery” (SPRAYABLE HOLDINGS, INC., priority 2014, dated 2018).

This data set is described as follows: clinical. To be noted: human, plasma, topical, 3 mg.

On to `COc1ccc2[nH]cc(CCNC(C)=O)c2c1` [Melatonin], for which the concentration at 0 hr stood at 0 ng/mL, the concentration at 1 h turned out to be 1.4 ng/mL, the concentration at 1 hr stood at 1.6 ng/mL and the concentration at 2 h is 1.5 ng/mL. The same compound gave a concentration at 2 hr of 1.7 ng/mL, a concentration at 4 h of 1.5 ng/mL, a concentration at 4 hr of 1.8 ng/mL and a concentration at 8 h of 1.4 ng/mL. This compound yielded a concentration at 8 hr of 1.7 ng/mL.
